Laboratory results taken from US8735446B2, “Vanillin acetals and sensory stimulant composition containing the same” (Takasago International Corporation, priority 2005, dated 2014).

Key:
[1] = system: ten expert panelists; test: Sensory Evaluation 1: oral evaluation of 10 ppm aqueous solutions; type: in vivo, human; parameters: key to Instantaneous sensation: ⊚: very fast; ◯: fast; Δ: is somewhat slow; x: slow; settings: for Instantaneous sensation / Intensity: oral evaluation, 10 ppm aqueous solution, warming sensation and pungent taste, average of ten panelists; for Intensity: scale 5 very strong, 4 strong, 3 weak, 2 very weak, 1 not able to feel
Method: Compound A and Compound C obtained in Example 1 and Example 3, respectively, were subjected to oral evaluation using 10 ppm aqueous solutions of them by ten expert panelists having 5 or more year experience, and an instantaneous sensation and an intensity of warming sensation and pungent taste were evaluated on the basis of the following evaluation criteria. On the sensory evaluation, 4-(l-methoxymethyl)-2-(3′-methoxy-4′-hydroxyphenyl)-1,3-dioxolan (Comparative compound A: the compound described in JP-A-8-225564) was used as a comparative compound. The evaluation results in the table show the average value of ten panelists.

[2] = system: skin; test: warm sensation and stimulating effect on the skin; type: in vivo, human

Structure (SMILES) | pungent and warming effect in the mouth [1] | Instantaneous sensation [1] | Intensity [1] | warm sensation and stimulating effect on the skin [2]
COCC1COC(c2ccc(O)c(OC)c2)O1 (stereo not drawn) [Comparative compound A, 4-(l-methoxymethyl)-2-(3′-methoxy-4′-hydroxyphenyl)-1,3-dioxolan, reference compound] | strong pungent and warming effect in the mouth | Δ | 2.8 | strong warm sensation and stimulating effect on the skin
CCCCC1COC(c2ccc(O)c(OC)c2)O1 (stereo not drawn) [Compound A, vanillin-1,2-hexylene glycol acetal] | strong pungent and warming effect in the mouth | ⊚ | 4.5 | strong warm sensation and stimulating effect on the skin
CCCCOCC1COC(c2ccc(O)c(OC)c2)O1 (stereo not drawn) [Compound C, vanillin-1-butoxyglycerol acetal] | strong pungent and warming effect in the mouth | ⊚ | 4.2 | strong warm sensation and stimulating effect on the skin
